# Results taken from BindingDB's records for doi:10.1016/S0960-894X(01)80832-5 (1994).
# Assays:
# [1] = target: Gastrin/cholecystokinin type B receptor (Cavia porcellus); assay: Inhibitory activity against cholecystokinin-B (CCK-B) receptor in cortex of male hartley guinea pig.
# [2] = target: Gastrin/cholecystokinin type B receptor (Cavia porcellus); assay: as above; remark: listed apart in the source
SMILES,IC50 [1],IC50 [2]
"Cc1cccc(NC(=O)N[C@@H]2C[C@H](c3ccccc3C)C[C@H](c3ccccc3)N(CC(=O)Nc3ccccc3C)C2=O)c1 [2-[(3R,5S,7R)-2-Oxo-7-phenyl-5-o-tolyl-3-(3-m-tolyl-ureido)-azepan-1-yl]-N-o-tolyl-acetamide]",71 nM,
"Cc1ccc(NC(=O)CN2C(=O)[C@H](NC(=O)Nc3cccc(C)c3)C[C@H](c3ccccc3C)C[C@@H]2c2ccccc2)cc1 [2-[(3R,5S,7R)-2-Oxo-7-phenyl-5-o-tolyl-3-(3-m-tolyl-ureido)-azepan-1-yl]-N-p-tolyl-acetamide]",40 nM,
"CCc1cccc(NC(=O)N[C@@H]2C[C@H](c3ccccc3C)C[C@H](c3ccccc3)N(CC(=O)NC3(C)CCCCC3)C2=O)c1 [2-{(3R,5S,7R)-3-[3-(3-Ethyl-phenyl)-ureido]-2-oxo-7-phenyl-5-o-tolyl-azepan-1-yl}-N-(1-methyl-cyclohexyl)-acetamide]",38 nM,
"Cc1cccc(NC(=O)N[C@@H]2C[C@H](c3ccccc3C)C[C@H](c3ccccc3)N(CC(=O)NC3(C)CCCCC3)C2=O)c1 [N-(1-Methyl-cyclohexyl)-2-[(3R,5S,7R)-2-oxo-7-phenyl-5-o-tolyl-3-(3-m-tolyl-ureido)-azepan-1-yl]-acetamide]",134 nM,
"Cc1cccc(NC(=O)N[C@@H]2C[C@H](c3ccccc3C)C[C@H](c3ccccc3)N(CC(=O)NC(C(C)(C)C)C(C)(C)C)C2=O)c1 [N-(1-tert-Butyl-2,2-dimethyl-propyl)-2-[(3R,5S,7R)-2-oxo-7-phenyl-5-o-tolyl-3-(3-m-tolyl-ureido)-azepan-1-yl]-acetamide]",453 nM,
"Cc1cccc(NC(=O)N[C@@H]2C[C@H](c3ccccc3C)C[C@H](c3ccccc3)N(CC(=O)Nc3ccccc3Cl)C2=O)c1 [N-(2-Chloro-phenyl)-2-[(3R,5S,7R)-2-oxo-7-phenyl-5-o-tolyl-3-(3-m-tolyl-ureido)-azepan-1-yl]-acetamide]",28 nM,
"Cc1cccc(NC(=O)N[C@@H]2C[C@H](c3ccccc3)C[C@H](c3cccc(C)c3)N(CC(=O)NC(C)(C)C)C2=O)c1 [N-tert-Butyl-2-[(3R,5S,7R)-2-oxo-5-phenyl-7-m-tolyl-3-(3-m-tolyl-ureido)-azepan-1-yl]-acetamide]",141 nM,
"Cc1ccc([C@H]2C[C@@H](c3ccccc3)C[C@@H](NC(=O)Nc3cccc(C)c3)C(=O)N2CC(=O)NC(C)(C)C)cc1 [N-tert-Butyl-2-[(3R,5S,7R)-2-oxo-5-phenyl-7-p-tolyl-3-(3-m-tolyl-ureido)-azepan-1-yl]-acetamide]",560 nM,
"Cc1cccc(NC(=O)N[C@@H]2C[C@H](c3ccccc3C)C[C@H](c3ccccc3)N(CC(=O)NC(C)(C)C)C2=O)c1 [N-tert-Butyl-2-[(3R,5S,7R)-2-oxo-7-phenyl-5-o-tolyl-3-(3-m-tolyl-ureido)-azepan-1-yl]-acetamide]",7.8 nM,527 nM
"Cc1ccc([C@@H]2C[C@H](c3ccccc3)N(CC(=O)NC(C)(C)C)C(=O)[C@H](NC(=O)Nc3cccc(C)c3)C2)cc1 [N-tert-Butyl-2-[(3R,5S,7R)-2-oxo-7-phenyl-5-p-tolyl-3-(3-m-tolyl-ureido)-azepan-1-yl]-acetamide]",190 nM,
"CCc1ccccc1[C@@H]1C[C@H](c2ccccc2)N(CC(=O)NC(C)(C)C)C(=O)[C@H](NC(=O)Nc2cccc(C)c2)C1 [N-tert-Butyl-2-[(3R,5S,7R)-5-(2-ethyl-phenyl)-2-oxo-7-phenyl-3-(3-m-tolyl-ureido)-azepan-1-yl]-acetamide]",25 nM,
"COc1ccccc1[C@@H]1C[C@H](c2ccccc2)N(CC(=O)NC(C)(C)C)C(=O)[C@H](NC(=O)Nc2cccc(C)c2)C1 [N-tert-Butyl-2-[(3R,5S,7R)-5-(2-methoxy-phenyl)-2-oxo-7-phenyl-3-(3-m-tolyl-ureido)-azepan-1-yl]-acetamide]",28 nM,
"Cc1cccc(NC(=O)N[C@@H]2C[C@H](c3ccc(F)cc3)C[C@H](c3ccccc3)N(CC(=O)NC(C)(C)C)C2=O)c1 [N-tert-Butyl-2-[(3R,5S,7R)-5-(4-fluoro-phenyl)-2-oxo-7-phenyl-3-(3-m-tolyl-ureido)-azepan-1-yl]-acetamide]",65 nM,
"Cc1cccc(NC(=O)N[C@@H]2C[C@H](c3ccccc3)C[C@H](c3cccc(F)c3)N(CC(=O)NC(C)(C)C)C2=O)c1 [N-tert-Butyl-2-[(3R,5S,7R)-7-(3-fluoro-phenyl)-2-oxo-5-phenyl-3-(3-m-tolyl-ureido)-azepan-1-yl]-acetamide]",31 nM,
"Cc1cccc(NC(=O)N[C@@H]2C[C@H](c3ccccc3)C[C@H](c3ccc(F)cc3)N(CC(=O)NC(C)(C)C)C2=O)c1 [N-tert-Butyl-2-[(3R,5S,7R)-7-(4-fluoro-phenyl)-2-oxo-5-phenyl-3-(3-m-tolyl-ureido)-azepan-1-yl]-acetamide]",203 nM,
"Cc1ccccc1[C@@H]1C[C@H](c2ccccc2)N(CC(=O)NC(C)(C)C)C(=O)[C@H](NC(=O)Nc2cccc(C(F)(F)F)c2)C1 [N-tert-Butyl-2-{(3R,5S,7R)-2-oxo-7-phenyl-5-o-tolyl-3-[3-(3-trifluoromethyl-phenyl)-ureido]-azepan-1-yl}-acetamide]",28 nM,
"Cc1ccccc1[C@@H]1C[C@H](c2ccccc2)N(CC(=O)NC(C)(C)C)C(=O)[C@H](NC(=O)Nc2cccc(F)c2)C1 [N-tert-Butyl-2-{(3R,5S,7R)-3-[3-(3-fluoro-phenyl)-ureido]-2-oxo-7-phenyl-5-o-tolyl-azepan-1-yl}-acetamide]",36 nM,
"Cc1ccccc1[C@@H]1C[C@H](c2ccccc2)N(CC(=O)NC(C)(C)C)C(=O)[C@H](NC(=O)Nc2cccc([N+](=O)[O-])c2)C1 [N-tert-Butyl-2-{(3R,5S,7R)-3-[3-(3-nitro-phenyl)-ureido]-2-oxo-7-phenyl-5-o-tolyl-azepan-1-yl}-acetamide]",10 nM,
"Cc1ccccc1[C@@H]1C[C@H](c2ccccc2)N(CC(=O)NC(C)(C)C)C(=O)[C@H](NC(=O)Nc2ccc(Cl)cc2)C1 [N-tert-Butyl-2-{(3R,5S,7R)-3-[3-(4-chloro-phenyl)-ureido]-2-oxo-7-phenyl-5-o-tolyl-azepan-1-yl}-acetamide]",117 nM,
"COc1ccc(NC(=O)N[C@@H]2C[C@H](c3ccccc3C)C[C@H](c3ccccc3)N(CC(=O)NC(C)(C)C)C2=O)cc1 [N-tert-Butyl-2-{(3R,5S,7R)-3-[3-(4-methoxy-phenyl)-ureido]-2-oxo-7-phenyl-5-o-tolyl-azepan-1-yl}-acetamide]",87 nM,
